The text below walks through data of patent publication US20250326839A1, “TREATMENT OF DISEASES RELATED TO COLONY-STIMULATING FACTOR 1 RECEPTOR DYSFUNCTION USING TREM2 AGONISTS” (Vigil Neuroscience, Inc., priority 2020, published 2025).

The assay concerns human monocyte-derived macrophages (hMDMs). In words: Example 2E: CSF1R inhibition by PLX5622, confluence and morphology (Incucyte). To be noted: PLX5622 1 μM relative to vehicle alone. The assay is classed as cell-based. Here is the method:
PBMCs were isolated from fresh, whole blood from human donors. CD14+ monocytes were isolated using positive magnetic selection (Miltenyi). Cells were plated in UpCell® low-adhesion plates and incubated in culture media with 50 ng/mL CSF1 for 48 hours. After 48 hours, cells were non-enzymatically harvested and plated at 25,000 cells per well in cell culture plates coated with 10 μg/mL of either Ab-3 or a matching isotype control. PLX5622 was immediately added to the cultures to 1 μM, and plates were incubated in a humidified incubator at 37 C, 5% CO2 for an additional 96 hours. During incubation, cells were monitored every two hours using an Incucyte S3® analyzer (2 fields of view per well, imaged at 10×). Confluence was measured using built in S3 software, while area and eccentricity (cell shape) were measured using the built in “Cell By Cell” analysis software. Significance was determined by Student's T-test, two-tailed in Graphpad Prism.

Regarding `COc1ncc(F)cc1CNc1ccc(Cc2c[nH]c3ncc(C)cc23)c(F)n1` [PLX5622, reference compound], the confluence result (FIG. 5) is given as “significant reduction in confluence”. For the same compound, under “FIG. 6”, the “cells with “high area, high eccentricity” (ramified)” value is given as “significant reduction in cells with “high area, high eccentricity””.
